For eight compounds, IC50 results are on record in US20110207655A1, “CYCLIC DEPSIPEPTIDE COMPOUND AND USE THEREOF” (Astellas Pharma Inc., priority 2008, published 2011).

Each structure is given as a SMILES string. Read-outs that look alike come from different tables or passages of the source. Starred links: 1 amine or outer side, 2 acyl side, 3 side chain; linkers in the order of their positions; H or OH if unused. Positions of bridges follow the written chain, without caps; N, C: chain ends. Non-standard residues stand in square brackets, D forms with d. Residues, ends and D or L forms follow the SMILES beside them. *: point of attachment. X8 = CC(=O)NC(C(=O)OC(C(C)C)C(N[*:1])C(=O)[*:2])C(O)C(C)C; X2 = CSCC(O)C(NC(C)=O)C(=O)OC(C(C)C)C(N[*:1])C(=O)[*:2]; X3 = CC(C)C(O[*:3])C(N[*:1])C(=O)[*:2]; X7 = O=C(C(Cc1ccccc1F)O[*:1])[*:2]; X4 = CCCC(=O)NC(C(=O)*)C(O)C(C)C; X5 = CSCC(=O)NC(C(=O)*)C(O)C(C)C; X6 = CCC(=O)NC(C(=O)*)C(O)C(C)C; PhLac = O=C(O)[CH](O)Cc1ccccc1; NMeT = CN[CH](C(=O)O)[CH](C)O; NMeA = CN[CH](C)C(=O)O; NMeDha = C=C(NC)C(=O)O

This assay concerns Gq/11. Kind of assay: Inhibitory action on Gq/11: LTD4-induced cellular Ca2+ change in CHO cells stably expressing CysLTR2 (FLIPR). In kind it is cell-based. The procedure:
The test was carried out according to the method of Non-Patent Citation 3, using a leukotriene receptor CysLTR2 (cysteinyl leukotriene receptor 2), which is known to activate Gq/11. CHO cells stably expressing CysLTR2 were seeded on a 96-well black/clear bottom plate (manufactured by Becton, Dickinson and Company) at 20,000 cells per well, and after 24 hours of seeding, the medium was discarded. Then, Hanks BSS (GIBCO Inc.) including 2 μM Fluo-4, AM (manufactured by Molecular Probe Co.), 0.004% pluronic acid, 1% FBS, 20 mM HEPES, and 2.5 mM probenecid was added thereto at 100 μL per well, followed by incubation at 37° C. for 1 hour. After incubation, the resultant was washed four times with Hanks BSS including 20 mM HEPES, and Hanks BSS including 20 mm HEPES per well was added thereto 100 μL per well. In addition, 50 μL of a test compound that had been diluted with Hanks BSS including 20 mM HEPES to a final concentration from 1×10^−10 M to 1×10^−5 M was added thereto, followed by being left to stand at room temperature for 30 minutes. The change of cellular Ca^2+ concentration after addition of leukotriene D4 (LTD4, manufactured by Cayman Co.), which is a CysLTR2 ligand, was measured over time using an FLIPR (Molecular Device Corp.). 50 μL it of leukotriene D4 that had been diluted with Hanks BSS including 20 mM HEPES to a final concentration of 10 nM at 10 seconds after the initiation of measurement was added thereto, fluorescence intensities were measured every second for 50 seconds and every sixth second for 2 minutes, and a maximum fluorescence intensity during a measurement time of 3 minutes was observed. By plotting the concentrations and the fluorescence intensities of the test compounds, the IC50 values were calculated, which were taken as Gq/11 inhibitory activities.

The mark [1] stands for this setting: read-out: Gq/11 inhibitory activities (IC50 values), 10 nM LTD4, maximum Fluo-4 fluorescence intensity.

`C=C1C(=O)NC(C)C(=O)N(C)C(C)C(=O)NC(C(OC(=O)C(NC(=O)CSC)C(O)C(C)C)C(C)C)C(=O)N(C)C(C(C)OC)C(=O)OC(C)C(NC(C)=O)C(=O)OC(Cc2ccccc2)C(=O)N1C` (centres unmarked) [Ref 3] (Ac-T[PhLac][NMeDha]A[NMeA][X3](X5)[NMeT](Me); ester 1-C; configuration not given here): the IC50 under setting [1] was 56 nM.

Consider `C=C1C(=O)NC(C)C(=O)N(C)C(C)C(=O)NC(C(OC(=O)C(NC(C)=O)C(O)C(C)C)C(C)C)C(=O)N(C)C(C(C)O)C(=O)OC(C)C(NC(C)=O)C(=O)OC(Cc2ccccc2)C(=O)N1C` (centres unmarked) [Ex2] (Ac-T[PhLac][NMeDha]A[NMeA][X8][NMeT]; ester 1-C; configuration not given here), for which the IC50 under setting [1] amounted to 317 nM.

Take `C=C1C(=O)NC(C)C(=O)N(C)C(C)C(=O)NC(C(OC(=O)C(NC(=O)CCC)C(O)C(C)C)C(C)C)C(=O)N(C)C(C(C)OC)C(=O)OC(C)C(NC(C)=O)C(=O)OC(Cc2ccccc2)C(=O)N1C` (centres unmarked) [Ex1] (Ac-T[PhLac][NMeDha]A[NMeA][X3](X4)[NMeT](Me); ester 1-C; configuration not given here): the IC50 under setting [1] stood at 31 nM.

As for `COC(C)C1C(=O)OC(C)C(NC(C)=O)C(=O)OC(Cc2ccccc2)C(=O)N(C)C(C)C(=O)NC(C)C(=O)N(C)C(C)C(=O)NC(C(OC(=O)C(NC(C)=O)C(O)C(C)C)C(C)C)C(=O)N1C` (centres unmarked) [Ref 7] (Ac-T[PhLac][NMeA]A[NMeA][X8][NMeT](Me); ester 1-C; configuration not given here), under setting [1], the IC50 turned out to be 32 nM.

Turning to `C=C1C(=O)NC(C)C(=O)N(C)C(C)C(=O)NC(C(OC(=O)C(NC(C)=O)C(O)CSC)C(C)C)C(=O)N(C)C(C(C)OC)C(=O)OC(C)C(NC(C)=O)C(=O)OC(Cc2ccccc2)C(=O)N1C` (centres unmarked) [Ex4] (Ac-T[PhLac][NMeDha]A[NMeA][X2][NMeT](Me); ester 1-C; configuration not given here), the IC50 under setting [1] was determined as 365 nM.

On to `C=C1C(=O)NC(C)C(=O)N(C)C(C)C(=O)NC(C(OC(=O)C(NC(C)=O)C(O)CSC)C(C)C)C(=O)N(C)C(C(C)OC)C(=O)OC(C)C(NC(C)=O)C(=O)OC(Cc2ccccc2)C(=O)N1C` (centres unmarked) [Ex3] (Ac-T[PhLac][NMeDha]A[NMeA][X2][NMeT](Me); ester 1-C; configuration not given here), for which, under setting [1], the IC50 stood at 97 nM.

In the case of `C=C1C(=O)NC(C)C(=O)N(C)C(C)C(=O)NC(C(OC(=O)C(NC(=O)CC)C(O)C(C)C)C(C)C)C(=O)N(C)C(C(C)OC)C(=O)OC(C)C(NC(C)=O)C(=O)OC(Cc2ccccc2)C(=O)N1C` (centres unmarked) [Ref 2] (Ac-T[PhLac][NMeDha]A[NMeA][X3](X6)[NMeT](Me); ester 1-C; configuration not given here), the IC50 under setting [1] turned out to be 34 nM.

For `C=C1C(=O)NC(C)C(=O)N(C)C(C)C(=O)NC(C(OC(=O)C(NC(C)=O)C(O)C(C)C)C(C)C)C(=O)N(C)C(C(C)OC)C(=O)OC(C)C(NC(C)=O)C(=O)OC(Cc2ccccc2F)C(=O)N1C` (centres unmarked) [Ref 5] (Ac-T[X7][NMeDha]A[NMeA][X8][NMeT](Me); ester 1-C; configuration not given here), where the note is “10 nM LTD4, maximum Fluo-4 fluorescence intensity, read-out: Gq/11 inhibitory activities (IC50 values)”, the IC50 is 25 nM.
